# What was measured:
# Format in all cases: cell-based, human
# COLO 205 = test: NCI-60 one-dose screen (colon cancer); conditions: 10 µM single dose, 48 h
# Protocol: (§1) The obtained quinolinequinones were submitted to NCI, Bethesda, USA, and, as per standard protocol of NCI, all compounds were evaluated for their antiproliferative activity at single-dose assay (10 µM concentration in DMSO) on a panel of 60 cancer cell lines derived from leukemia, non-small-cell lung, colon, CNS, melanoma, ovarian, renal, prostate, and breast, as per protocol. Tested compounds were added to the microtiter culture plates followed by incubation for 48 h at 37 °C. Sulforhodamine B (SRB), a protein-binding dye, is used for endpoint determination. The percent of the growth of the treated cells was determined in comparison to the untreated control cells and the results of each tested compound were reported. Data from one-dose experiments pertain to the percentage growth at 10 μM [16, 17, 18].
# HCC-2998 [1] = test: NCI-60 one-dose screen (colon cancer); conditions: 10 µM single dose, 48 h
# Protocol: as §1
# HCT-15 = test: NCI-60 one-dose screen (colon cancer); conditions: 10 µM single dose, 48 h
# Protocol: as §1
# HT29 = test: NCI-60 one-dose screen (colon cancer); conditions: 10 µM single dose, 48 h
# Protocol: as §1
# KM12 = test: NCI-60 one-dose screen (colon cancer); conditions: 10 µM single dose, 48 h
# Protocol: as §1
# SW-620 [2] = test: NCI-60 one-dose screen (colon cancer); conditions: 10 µM single dose, 48 h
# Protocol: as §1
# 786-0 [3] = test: NCI-60 one-dose screen (renal cancer); conditions: 10 µM single dose, 48 h
# Protocol: as §1
# A498 [4] = test: NCI-60 one-dose screen (renal cancer); conditions: 10 µM single dose, 48 h
# Protocol: as §1
# ACHN [5] = test: NCI-60 one-dose screen (renal cancer); conditions: 10 µM single dose, 48 h
# Protocol: as §1
# SN12C = test: NCI-60 one-dose screen (renal cancer); conditions: 10 µM single dose, 48 h
# Protocol: as §1
# TK-10 = test: NCI-60 one-dose screen (renal cancer); conditions: 10 µM single dose, 48 h
# Protocol: as §1
# UO-31 = test: NCI-60 one-dose screen (renal cancer); conditions: 10 µM single dose, 48 h
# Protocol: as §1
# DU-145 = test: NCI-60 one-dose screen (prostate cancer); conditions: 10 µM single dose, 48 h
# Protocol: as §1
# PC-3 = test: NCI-60 one-dose screen (prostate cancer); conditions: 10 µM single dose
# Protocol: as §1
# BT-549 = test: NCI-60 one-dose screen (breast cancer); conditions: 10 µM single dose, 48 h
# Protocol: as §1
# HS 578T = test: NCI-60 one-dose screen (breast cancer); conditions: 10 µM single dose, 48 h
# Protocol: as §1
# MCF7 = test: NCI-60 one-dose screen (breast cancer); conditions: 10 µM single dose, 48 h
# Protocol: as §1
# MDA-MB-231/ATCC [6] = test: NCI-60 one-dose screen (breast cancer); conditions: 10 µM single dose, 48 h
# Protocol: as §1
# MDA-MB-468 = test: NCI-60 one-dose screen (breast cancer); conditions: 10 µM single dose, 48 h
# Protocol: as §1
# T-47D = test: NCI-60 one-dose screen (breast cancer); conditions: 10 µM single dose, 48 h
# Protocol: as §1
# MOLT-4 = test: NCI-60 five-dose assay (leukemia); conditions: 48 h, SRB
# SR = test: NCI-60 five-dose assay (leukemia); conditions: 48 h, SRB
# HOP-62 = test: NCI-60 five-dose assay (non-small cell lung cancer); conditions: 48 h, SRB
# HCC-2998 [7] = test: NCI-60 five-dose assay (colon cancer); conditions: 48 h, SRB
# HCT-116 = test: NCI-60 five-dose assay (colon cancer); conditions: 48 h, SRB
# SW-620 [8] = test: NCI-60 five-dose assay (colon cancer); conditions: 48 h, SRB
# SF-539 = test: NCI-60 five-dose assay (CNS cancer); conditions: 48 h, SRB
# LOX IMVI = test: NCI-60 five-dose assay (melanoma); conditions: 48 h, SRB
# MALME-3M = test: NCI-60 five-dose assay (melanoma); conditions: 48 h, SRB
# SK-MEL-2 = test: NCI-60 five-dose assay (melanoma); conditions: 48 h, SRB
# OVCAR-3 = test: NCI-60 five-dose assay (ovarian cancer); conditions: 48 h, SRB
# OVCAR-4 = test: NCI-60 five-dose assay (ovarian cancer); conditions: 48 h, SRB
# OVCAR-5 = test: NCI-60 five-dose assay (ovarian cancer); conditions: 48 h, SRB
# SK-OV-3 = test: NCI-60 five-dose assay (ovarian cancer); conditions: 48 h, SRB
# 786-0 [9] = test: NCI-60 five-dose assay (renal cancer); conditions: 48 h, SRB
# A498 [10] = test: NCI-60 five-dose assay (renal cancer); conditions: 48 h, SRB
# ACHN [11] = test: NCI-60 five-dose assay (renal cancer); conditions: 48 h, SRB
# MDA-MB-231/ATCC [12] = test: NCI-60 five-dose assay (breast cancer); conditions: 48 h, SRB
# [13] = Homo sapiens, read-out: LC50 (the source's name)
smiles,measurement,setting,value
COc1ccccc1NC1=C(Cl)C(=O)c2nc(C)ccc2C1=O [AQQ1],GP (growth percentage),COLO 205,111.34%
same,GP (growth percentage),HCC-2998 [1],58.90%
same,GP (growth percentage),HCT-15,−47.03%
same,GP (growth percentage),HT29,75.04%
same,GP (growth percentage),KM12,69.40%
same,GP (growth percentage),SW-620 [2],−63.13%
same,GP (growth percentage),786-0 [3],9.17%
same,GP (growth percentage),A498 [4],71.81%
same,GP (growth percentage),ACHN [5],−99.93%
same,GP (growth percentage),SN12C,−49.46%
same,GP (growth percentage),TK-10,147.78%
same,GP (growth percentage),UO-31,−65.68%
same,GP (growth percentage),DU-145,−57.26%
same,GP (growth percentage),PC-3; 48 h,27.39%
same,inhibition at 10 µM,PC-3; Homo sapiens,72.6%
same,GP (growth percentage),BT-549,83.54%
same,GP (growth percentage),HS 578T,72.15%
same,GP (growth percentage),MCF7,−60.38%
same,GP (growth percentage),MDA-MB-231/ATCC [6],−57.30%
same,GP (growth percentage),MDA-MB-468,−79.74%
same,GP (growth percentage),T-47D,−44.73%
same,TGI,MOLT-4,8.60 µM
same,GI50,MOLT-4; Homo sapiens,2.27 µM
same,LC50,MOLT-4; Homo sapiens,> 100 µM
same,TGI,SR,4.25 µM
same,GI50,SR; Homo sapiens,0.794 µM
same,CC50,SR; [13],> 100 µM
same,TGI,HOP-62,6.98 µM
same,GI50,HOP-62; Homo sapiens,2.41 µM
same,LC50 (concentration killing 50% of cells),HOP-62; Homo sapiens,37.5 µM
same,TGI,HCC-2998 [7],3.46 µM
same,GI50,HCC-2998 [7]; Homo sapiens,1.87 µM
same,LC50 (concentration killing 50% of cells),HCC-2998 [7]; Homo sapiens,6.42 µM
same,TGI,HCT-116,4.16 µM
same,GI50,HCT-116; Homo sapiens,1.53 µM
same,LC50,HCT-116; Homo sapiens,44.3 µM
same,TGI,SW-620 [8],3.73 µM
same,GI50,SW-620 [8]; Homo sapiens,1.84 µM
same,LC50,SW-620 [8]; Homo sapiens,7.56 µM
same,TGI,SF-539,3.13 µM
same,GI50,SF-539; Homo sapiens,1.68 µM
same,LC50,SF-539; Homo sapiens,5.81 µM
same,TGI,LOX IMVI,2.36 µM
same,GI50,LOX IMVI; Homo sapiens,0.952 µM
same,LC50 (concentration killing 50% of cells),LOX IMVI; Homo sapiens,5.7 µM
same,TGI,MALME-3M,3.19 µM
same,GI50,MALME-3M; Homo sapiens,1.71 µM
same,LC50,MALME-3M; Homo sapiens,5.95 µM
same,TGI,SK-MEL-2,3.34 µM
same,GI50,SK-MEL-2; Homo sapiens,1.81 µM
same,CC50,SK-MEL-2; [13],6.19 µM
same,TGI,OVCAR-3,2.40 µM
same,GI50,OVCAR-3; Homo sapiens,1.12 µM
same,CC50,OVCAR-3; [13],5.15 µM
same,TGI,OVCAR-4,2.49 µM
same,GI50,OVCAR-4; Homo sapiens,1.21 µM
same,LC50 (concentration killing 50% of cells),OVCAR-4; Homo sapiens,5.11 µM
same,TGI,OVCAR-5,3.42 µM
same,GI50,OVCAR-5; Homo sapiens,1.86 µM
same,LC50 (lethal concentration 50%),OVCAR-5; Homo sapiens,6.29 µM
same,TGI,SK-OV-3,27.5 µM
same,GI50,SK-OV-3; Homo sapiens,12.6 µM
same,LC50 (50% net cell kill),SK-OV-3; Homo sapiens,59.8 µM
same,TGI,786-0 [9],3.61 µM
same,GI50,786-0 [9]; Homo sapiens,1.91 µM
same,LC50,786-0 [9]; Homo sapiens,6.82 µM
same,TGI,A498 [10],4.60 µM
same,GI50,A498 [10]; Homo sapiens,1.9 µM
same,LC50,A498 [10]; Homo sapiens,13.1 µM
same,TGI,ACHN [11],2.80 µM
same,GI50,ACHN [11]; Homo sapiens,1.47 µM
same,LC50,ACHN [11]; Homo sapiens,5.34 µM
same,TGI,MDA-MB-231/ATCC [12],2.53 µM
same,GI50,MDA-MB-231/ATCC [12]; Homo sapiens,1.19 µM
same,LC50 (concentration killing 50% of cells),MDA-MB-231/ATCC [12]; Homo sapiens,5.37 µM
